According to publication PMC9017425, “Integrative Analysis of Pharmacokinetic and Metabolomic Profiles for Predicting Metabolic Phenotype and Drug Exposure Caused by Sotorasib in Rats” (Frontiers in Oncology, 2022):
Read-outs that look alike come from different tables or passages of the source.

What was measured:
[1] = parameters: method as in PMID 33283304; conditions: oral administration, 50 mg/kg; cited from earlier work
[2] = Working solution stability of sotorasib; format: physicochemical; conditions: −80°C for 10 days, n = 6
Protocol: Stock solutions of sotorasib and IS were equipped using ACN at a concentration of 1.0 mg/ml and further diluted for the calibration standards and quality control (QC) samples at a final concentration of 500 µg/ml separately. The working IS solution was prepared in MeOH at a concentration of 10 ng/ml. The working calibration solutions of sotorasib were completed in dilution (MeOH/water = 1:1, v/v) to obtain concentrations of 5, 10, 20, 50, 100, 100, 200, 500, 1,000, 2,000, and 5,000 ng/ml. Similarly, the QC working solutions of analytes were prepared to obtain final concentrations of 10, 200, and 4,000 ng/ml. All solutions were stored in a −80°C freezer pending analysis. For the PK study, calibrations were made in blank rat plasma to achieve a nominal concentration range of 0.5–500 ng/ml. QC plasma samples were prepared in blank rat plasma at nominal concentrations of 1, 20, and 400 ng/ml. Stability was investigated at LQC and HQC concentrations in six replicates. The stability conditions incorporated the short-term (at ambient temperature for 24 h), freeze–thaw (−80°C to ambient temperature, three sequential cycles), post-preparation (autosampler, 24 h), and long-term (−80°C for 3 months) status. If the %Bias is within ±15%, the stability is considered acceptable.

[3] = Stability of sotorasib in rat plasma QC samples under different storage conditions; format: in vitro ADME; conditions: for Post-preparation stability, measured concentration Mean ± SD / Room temperature stability, measured concentration Mean ± SD / Freeze–thaw stability, measured concentration Mean ± SD / Long-term stability, measured concentration Mean ± SD: n = 6; for Room temperature stability, measured concentration Mean ± SD: rat plasma, ambient temperature; for Freeze–thaw stability, measured concentration Mean ± SD: three cycles −80°C to ambient temperature; for Long-term stability, measured concentration Mean ± SD: −80°C for 3 months
From the text: Stability was investigated at LQC and HQC concentrations in six replicates. […] If the %Bias is within ±15%, the stability is considered acceptable.

[4] = Pharmacokinetic study of sotorasib in rats after oral administration (HPLC-MS/MS of plasma); format: in vivo; conditions: male, Sprague-Dawley, rat
Protocol: For the PK study, a chromatographic system of Shimadzu LC-20ADXR (Kyoto, Japan) coupled with a mass spectrometer (QTRAP 5500; SCIEX, Concord, Canada) was utilized for chromatographic separation and mass quantitation ([19]). The column temperature was set to 40°C on a reversed-phase C18 column (50 mm × 2.1 mm i.d., 3.5 μm) (XBrige; Waters, Milford, MA, USA), and the total run time was 3.0 min. Both mobile phases contained 0.1% formic acid. Gradient elution was adopted to comply with the compounds’ baseline separation (0–0.1 min, 90% water phase; 0.1–1.2 min, 10% water phase; 1.2–2.2 min, 0% water phase; and 2.2–3.0 min, 90% water phase). The flow rate was fixed at 0.4 ml/min with an injection volume of 2 μl. A time-efficient washing procedure composed of MeOH/water/ACN/IPA (1:1:1:1, v/v/v/v) was applied during the entire analyses. Multiple reaction monitoring (MRM) was utilized with the following parameters: ion spray voltage, 5,500 V; temperature, 550°C; curtain gas, 20.0 psi; ion source, gas 1 at 55.0 psi; and turbo ion source, gas 2 at 55.0 psi. A proton adduct [M+H]^+ ion and double MRM transitions were used, which were set at m/z 561.4→317.1 (qualifier) and m/z 561.4→134.1 (quantifier) for sotorasib and at 237.0→194.1 for the IS.
During the PK study, all unknown plasma samples were mixed for 1 min and 20 μl aliquot of plasma was pipetted into an Eppendorf centrifuge tube. Protein precipitation was adopted for the preparation of the sample. After the addition of 10 μl IS working solution (10 ng/ml) and 80 μl MeOH, proteins were extracted by vortex mixing for approximately 30 s. The supernatant was centrifuged at 13,500 rpm for 10 min at 4°C. The extraction solutions were then pipetted into autosampler vials.
Six Sprague–Dawley rats (180–220 g, 8-week-old males; animal license: SCXK-2019-0008) were purchased from Beijing Vital River Laboratory Animal Technologies Co., Ltd. (Beijing, China). All rats were fed in a specific pathogen-free (SPF) conditioned room to allow acclimatization for 1 week. Animal experiments were implemented in line with the Guidelines for the Care and Use of Laboratory Animals, and animal ethics was approved by Beijing Chao-Yang Hospital, Capital Medical University. Rats were orally administered sotorasib dissolved with 1% Tween-80 and 2% hydroxypropyl methylcellulose (HPMC) in water at a dose of 10 mg/kg. Biological samples (approximately 500 μl) were collected from ophthalmic veins into heparin-anticoagulated collection tubes before administration and at 15 min, 30 min, and 1, 1.5, 2, 2.5, 3, 4, and 8 h after administration. Plasma samples were acquired by direct centrifugation at 3,500 rpm for 10 min at 4°C.
Raw data files were processed and checked using Analyst 1.6.3 and MultiQuant 3.0.1 (SCIEX, Concord, Canada). The concentrations of the analytes were calculated according to the calibration curve. Pharmacokinetic parameters, such as C max and the area under the curve (AUC), were calculated using Phoenix WinNonLin software (Pharsight 8.3, Mountain View, CA, USA). Pearson’s correlation was employed to investigate the correlation between the metabolomic data and PK parameters using IBM SPSS 26.0 (Armonk, NY, USA). SIMCA-P software (v14.1; Umetric, Umeå, Sweden) was employed to build mathematical models, including unsupervised principal component analysis (PCA), supervised orthogonal projection to latent structures discriminant analysis (OPLS-DA), and partial least squares (PLS). Compounds with values of variable importance in the projections (VIP) >1 and statistical significance of p < 0.05 were selected for further identification and metabolic pathway analysis. One hundred or 200 random permutation tests were employed to examine overfitting and random effects, which can assess the predictive ability of the model. Meanwhile, significant variables with p < 0.05 and fold change (FC) >2 or <0.5 were considered potential biomarkers. […]

[5] = parameters: method as in PMID 33957355; conditions: mice, single oral 20 mg/kg; cited from earlier work
[6] = rats, 10 mg/kg, n = 6, mean ± SD

Compound: C=CC(=O)N1CCN(c2nc(=O)n(-c3c(C)ccnc3C(C)C)c3nc(-c4c(O)cccc4F)c(F)cc23)[C@@H](C)C1 [Sotorasib]
- AUC0–∞ [1]: 170 ng·h/mL
- C max [1]: 123 ng/mL
- T max [1]: 15 min
- t 1/2 [1]: 114 min
- Working solution stability, measured concentration Mean ± SD ([2]; nominal 1 ng/ml): 1.034 ± 0.08 ng/mL
- Working solution stability, measured concentration Mean ± SD ([2]; nominal 400 ng/ml): 409.37 ± 37.98 ng/mL
- stability under several storage conditions in plasma or in solution ([3]; ambient temperature 6 h, three freeze–thaw cycles, autosampler 24 h, working solution −80°C 10 days, −80°C 3 months): stable
- Post-preparation stability, measured concentration Mean ± SD ([3]; nominal 1 ng/ml, autosampler 24 h): 1.07 ± 0.06 ng/mL
- Room temperature stability, measured concentration Mean ± SD ([3]; nominal 1 ng/ml): 1.03 ± 0.10 ng/mL
- Freeze–thaw stability, measured concentration Mean ± SD ([3]; nominal 1 ng/ml): 1.06 ± 0.07 ng/mL
- Long-term stability, measured concentration Mean ± SD ([3]; nominal 1 ng/ml): 1.01 ± 0.07 ng/mL
- Post-preparation stability, measured concentration Mean ± SD ([3]; nominal 400 ng/ml, autosampler 24 h): 441.20 ± 10.76 ng/mL
- Room temperature stability, measured concentration Mean ± SD ([3]; nominal 400 ng/ml): 434.00 ± 8.07 ng/mL
- Freeze–thaw stability, measured concentration Mean ± SD ([3]; nominal 400 ng/ml): 448.60 ± 6.19 ng/mL
- Long-term stability, measured concentration Mean ± SD ([3]; nominal 400 ng/ml): 399.67 ± 20.10 ng/mL
- concentration at 15 min ([4]; 10-mg/kg dose, 15 min after administration, single sample, read-out: plasma concentration of an unknown sample): 298 ng/mL
- AUC(0-inf) [4, 6]: 463 ± 167 ng·h/mL
- AUC(0-t) [4, 6]: 457 ± 165 ng·h/mL
- Cmax [4, 6]: 227 ± 98.8 ng/mL
- half-life [4, 6]: 74.4 ± 13.2 min
- CL/F ([4]; rats, 10 mg/kg, n = 6, mean ± SD, read-out: CL_F (apparent clearance) (converted)): 400 mL/min/kg
- MRT ([4]; rats, 10 mg/kg, n = 6, mean ± SD, read-out: MRT (mean residence time)): 113 ± 10.8 min
- Vd/F ([4]; rats, 10 mg/kg, n = 6, mean ± SD, read-out: Vz_F (apparent volume of distribution)): 43.3 ± 17.9 L/kg
- Tmax ([4]; rats, 10 mg/kg, n = 6, median (range)): 30 min
- AUC0–4 [5]: 3,766 ± 896 ng·h/ml
- C max [5]: 4,231 ± 1,208 ng/ml
- T max [5]: 12.6 ± 3.6 min
- t 1/2 [5]: 36 ± 3.6 min
- time in which C max was achieved [5]: < 15 min
